Target: PHD-bromodomain of TRIM24 (Homo sapiens (Human), UniProt O15164)
Experiment: TRIM24 binding alpha assay
Conditions: Alpha Assay binding to TRIM24; compounds 50 μM to 0.002 μM
Protocol: The alpha TRIM24 binding assay is used to assess the binding of the compounds of the application. Compounds are added at various concentrations as well as a vehicle control. Compounds that bind to TRIM24 compete away the interaction between the PHD-bromodomain of TRIM24 bound to the donor bead, and the H3K23ac histone peptide bound to the acceptor bead, which causes a decrease in signal. IC50 values are calculated.
The alpha assay was used to assess the binding of the compounds of the application to TRIM24 at various concentrations. All compounds were added at concentrations from 50 μM to 0.002 μM. Compounds that bind to TRIM24 compete with the PHD-bromodomain of TRIM24 in interacting with the donor bead, and the H3K23ac histone peptide bound to the acceptor bead, which causes a decrease in signal. IC50 values were calculated by using Graphpad PRISM's log(inhibitor) vs. response—variable slope (four parameters).

PHD-bromodomain of TRIM24, sequence (O15164 824-1006): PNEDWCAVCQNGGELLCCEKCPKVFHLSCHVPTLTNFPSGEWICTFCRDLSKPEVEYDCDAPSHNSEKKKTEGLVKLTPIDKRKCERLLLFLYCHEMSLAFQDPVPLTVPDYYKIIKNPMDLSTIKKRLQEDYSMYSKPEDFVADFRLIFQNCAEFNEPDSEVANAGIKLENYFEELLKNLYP

Row | Compound | IC50 [nM]
1 | CCCOc1cc(OCCCCN(C)C)cc(Oc2cc3c(cc2NS(=O)(=O)c2cccc(C(=O)NCCCCNC(=O)COc4cccc5c4C(=O)N(C4CCC(=O)NC4=O)C5=O)c2)n(C)c(=O)n3C)c1 (stereo not shown) [I-A10, 3-(N-(6-(3-(4-(dimethylamino)butoxy)-5-propoxyphenoxy)-1,3-dimethyl-2-oxo-2,3-dihydro-1H-benzo[d]imidazol-5-yl)sulfamoyl)-N-(4-(2-((2-(2,6-dioxopiperidin-3-yl)-1,3-dioxoisoindolin-4-yl)oxy)acetamido)butyl)benzamide] | < 50
2 | COc1ccc(Oc2cc3c(cc2NS(=O)(=O)c2ccc(OC)c(OC)c2)n(C)c(=O)n3C)cc1 [Cmpd A, reference compound] | > 500
3 | Cc1nc(S(=O)(=O)Nc2cc3c(cc2Oc2cccc(OCC(=O)NCCCOCCOCCOCCCNC(=O)COc4cccc5c4C(=O)N(C4CCC(=O)NC4=O)C5=O)c2)n(C)c(=O)n3C)cn1C (stereo not shown) [I-A9, 2-(3-((6-((1,2-dimethyl-1H-imidazole)-4-sulfonamido)-1,3-dimethyl-2-oxo-2,3-dihydro-1H-benzo[d]imidazol-5-yl)oxy)phenoxy)-N-(1-((2-(2,6-dioxopiperidin-3-yl)-1,3-dioxoisoindolin-4-yl)oxy)-2-oxo-7,10,13-trioxa-3-azahexadecan-16-yl)acetamide] | > 500
4 | CCCOc1cc(OCCCCN(C)C)cc(Oc2cc3c(cc2NS(=O)(=O)c2cccc(C(=O)NCCOCCOCCOCC(=O)N[C@H](C(=O)N4C[C@H](O)C[C@H]4C(=O)NCc4ccc(-c5scnc5C)cc4)C(C)(C)C)c2)n(C)c(=O)n3C)c1 [I-B4, (2S,4R)-1-((S)-15-(tert-butyl)-1-(3-(N-(6-(3-(4-(dimethylamino)butoxy)-5-propoxyphenoxy)-1,3-dimethyl-2-oxo-2,3-dihydro-H-benzo[d]imidazol-5-yl)sulfamoyl)phenyl)-1,13-dioxo-5,8,11-trioxa-2,14-diazahexadecan-16-oyl)-4-hydroxy-N-(4-(4-methylthiazol-5-yl)benzyl)pyrrolidine-2-carboxamide] | < 50
5 | Cc1nc(S(=O)(=O)Nc2cc3c(cc2Oc2cccc(OCC(=O)NCCCCNC(=O)COc4cccc5c4C(=O)N(C4CCC(=O)NC4=O)C5=O)c2)n(C)c(=O)n3C)cn1C (stereo not shown) [I-A7, 2-(3-((6-((1,2-dimethyl-1H-imidazole)-4-sulfonamido)-1,3-dimethyl-2-oxo-2,3-dihydro-1H-benzo[d]imidazol-5-yl)oxy)phenoxy)-N-(4-(2-((2-(2,6-dioxopiperidin-3-yl)-1,3-dioxoisoindolin-4-yl)oxy)acetamido)butyl)acetamide] | > 500
6 | COc1ccc(S(=O)(=O)Nc2cc3c(cc2Oc2ccc(OCC(=O)NCCCCNC(=O)COc4cccc5c4C(=O)N(C4CCC(=O)NC4=O)C5=O)cc2)n(C)c(=O)n3C)cc1OC (stereo not shown) [I-A1, 2-(4-((6-((3,4-dimethoxyphenyl)sulfonamido)-1,3-dimethyl-2-oxo-2,3-dihydro-1H-benzo[d]imidazol-5-yl)oxy)phenoxy)-N-(4-(2-((2-(2,6-dioxopiperidin-3-yl)-1,3-dioxoisoindolin-4-yl)oxy)acetamido)butyl)acetamide] | > 500
7 | Cc1nc(S(=O)(=O)Nc2cc3c(cc2Oc2cccc(OCC(=O)NCCCCCCCCNC(=O)COc4cccc5c4C(=O)N(C4CCC(=O)NC4=O)C5=O)c2)n(C)c(=O)n3C)cn1C (stereo not shown) [I-A8, 2-(3-((6-((1,2-dimethyl-1H-imidazole)-4-sulfonamido)-1,3-dimethyl-2-oxo-2,3-dihydro-1H-benzo[d]imidazol-5-yl)oxy)phenoxy)-N-(8-(2-((2-(2,6-dioxopiperidin-3-yl)-1,3-dioxoisoindolin-4-yl)oxy)acetamido)octyl)acetamide] | > 500

More lines, now with the values ahead:

Row | IC50 [nM] | Compound
8 | 50 to 100 | CCCOc1cccc(Oc2cc3c(cc2NS(=O)(=O)c2cccc(C(=O)NCCCCNC(=O)COc4cccc5c4C(=O)N(C4CCC(=O)NC4=O)C5=O)c2)n(C)c(=O)n3C)c1 (stereo not shown) [I-A4, 3-(N-(1,3-dimethyl-2-oxo-6-(3-propoxyphenoxy)-2,3-dihydro-1H-benzo[d]imidazol-5-yl)sulfamoyl)-N-(4-(2-((2-(2,6-dioxopiperidin-3-yl)-1,3-dioxoisoindolin-4-yl)oxy)acetamido)butyl)benzamide]
9 | > 500 | COc1ccc(S(=O)(=O)Nc2cc3c(cc2Oc2ccc(OCC(=O)NCCCCCCCCNC(=O)COc4cccc5c4C(=O)N(C4CCC(=O)NC4=O)C5=O)cc2)n(C)c(=O)n3C)cc1OC (stereo not shown) [I-A2, 2-(4-((6-((3,4-dimethoxyphenyl)sulfonamido)-1,3-dimethyl-2-oxo-2,3-dihydro-1H-benzo[d]imidazol-5-yl)oxy)phenoxy)-N-(8-(2-((2-(2,6-dioxopiperidin-3-yl)-1,3-dioxoisoindolin-4-yl)oxy)acetamido)octyl)acetamide]
10 | 50 to 100 | COc1ccc(S(=O)(=O)Nc2cc3c(cc2Oc2cccc(OCc4ccccc4)c2)n(C)c(=O)n3C)cc1OC [Cmpd B, reference compound]
11 | < 50 | CCCOc1cccc(Oc2cc3c(cc2NS(=O)(=O)c2cccc(C(=O)NCCOCCOCC(=O)N[C@H](C(=O)N4C[C@H](O)C[C@H]4C(=O)NCc4ccc(-c5scnc5C)cc4)C(C)(C)C)c2)n(C)c(=O)n3C)c1 [I-B2, (4R)-1-((S)-12-(tert-butyl)-1-(3-(N-(1,3-dimethyl-2-oxo-6-(3-propoxyphenoxy)-2,3-dihydro-1H-benzo[d]imidazol-5-yl)sulfamoyl)phenyl)-1,10-dioxo-5,8-dioxa-2,11-diazatridecan-13-oyl)-4-hydroxy-N-(4-(4-methylthiazol-5-yl)benzyl)pyrrolidine-2-carboxamide]
12 | < 50 | CCCOc1cccc(Oc2cc3c(cc2NS(=O)(=O)c2ccc(OC)c(OC)c2)n(C)c(=O)n3C)c1 [Cmpd D, reference compound]
13 | < 50 | Cc1nc(S(=O)(=O)Nc2cc3c(cc2Oc2cccc(OCC(C)C)c2)n(C)c(=O)n3C)cn1C [Cmpd C, reference compound]
14 | 100 to 500 | CCCOc1cccc(Oc2cc3c(cc2NS(=O)(=O)c2cccc(C(=O)NCCCCCCCCNC(=O)COc4cccc5c4C(=O)N(C4CCC(=O)NC4=O)C5=O)c2)n(C)c(=O)n3C)c1 (stereo not shown) [I-A5, 3-(N-(1,3-dimethyl-2-oxo-6-(3-propoxyphenoxy)-2,3-dihydro-1H-benzo[d]imidazol-5-yl)sulfamoyl)-N-(8-(2-((2-(2,6-dioxopiperidin-3-yl)-1,3-dioxoisoindolin-4-yl)oxy)acetamido)octyl)benzamide]
15 | < 50 | CCCOc1cccc(Oc2cc3c(cc2NS(=O)(=O)c2cccc(C(=O)NCCCOCCOCCOCCCNC(=O)COc4cccc5c4C(=O)N(C4CCC(=O)NC4=O)C5=O)c2)n(C)c(=O)n3C)c1 (stereo not shown) [I-A6, 3-(N-(1,3-dimethyl-2-oxo-6-(3-propoxyphenoxy)-2,3-dihydro-1H-benzo[d]imidazol-5-yl)sulfamoyl)-N-(1-((2-(2,6-dioxopiperidin-3-yl)-1,3-dioxoisoindolin-4-yl)oxy)-2-oxo-7,10,13-trioxa-3-azahexadecan-16-yl)benzamide]
16 | 100 to 500 | CCCOc1cccc(Oc2cc3c(cc2NS(=O)(=O)c2cccc(C(=O)NCCCCNC(=O)CC45CC6CC(CC(C6)C4)C5)c2)n(C)c(=O)n3C)c1 [Cmpd E, reference compound]
